The results in this text go back to DBAASP.

By MIC is commonly meant the smallest concentration in the dilution series that meets the test's criterion for growth inhibition.

Among the test systems are Micrococcus luteus; Escherichia coli SBS 363; Escherichia coli JW0013.
Holding throughout (test): ≥ marks a high value that may be exact or a test limit, other limits are often not marked, values filed in µg/mL are converted to µM
Experiment [1] concerns Staphylococcus aureus ATCC 6538P.
The subject of experiment [2] is Klebsiella pneumoniae ATCC 10031.
The test system of experiment [3] is Pseudomonas aeruginosa ATCC 27853.
Experiment [4] has as its system Staphylococcus epidermidis ATCC 12228.
In experiment [5] the test system is Bacillus subtilis ATCC 6633.
For experiment [6], the system named is Shigella dysenteriae ATCC 9752.
Experiment [7] has as its system Salmonella enterica subsp. enterica serovar Typhimurium ATCC 14028.
Experiment [8] has as its system Escherichia coli ATCC 25922.
For experiment [9], the system named is Staphylococcus aureus ATCC 29213.

Structures are written as SMILES. In brackets after ≈: the same amount, converted by molar mass.

With `CC(C)C[C@H](NC(=O)[C@H](CC(C)C)NC(=O)[C@H](Cc1c[nH]c2ccccc12)NC(=O)[C@H](CCCCN)NC(=O)[C@H](CC(C)C)NC(=O)[C@@H](N)CC(C)C)C(=O)N[C@@H](CCCCN)C(N)=O` [LLKWLLK], the MIC in experiment [1] was 27.4 µM (≈ 25 µg/mL); in experiment [2] it was at least 219 µM; in experiment [3], 110 µM (≈ 99.9 µg/mL); in [4], 110 µM (≈ 99.9 µg/mL); in [5], 27.4 µM (≈ 25 µg/mL); in [6], at least 110 µM. Besides, the figures for the MIC in experiment [7] and in experiment [8] were 219 µM (≈ 200 µg/mL) and 110 µM (≈ 99.9 µg/mL), respectively.

Regarding `CC[C@H](C)[C@@H]1NC(=O)[C@H](CO)NC(=O)[C@H](CCCCN)NC(=O)[C@@H]2CSSC[C@@H](C(=O)N[C@@H](CC(=O)O)C(=O)NCC(=O)N[C@@H](CCC(N)=O)C(=O)N[C@H](C(=O)N[C@H](C(=O)N[C@H](C(=O)N[C@@H](CC(N)=O)C(=O)N[C@@H](CO)C(=O)N[C@H]3CSSC[C@@H]4NC(=O)[C@H](CCCN=C(N)N)NC(=O)CNC(=O)[C@H](Cc5ccccc5)NC(=O)[C@H](CCCCN)NC(=O)[C@H](CCCN=C(N)N)NC(=O)[C@H](CCCCN)NC(=O)[C@H](CSSC[C@@H](C(=O)N[C@@H](Cc5ccccc5)C(=O)N[C@@H](Cc5ccccc5)C(=O)O)NC(=O)[C@H](CCC(=O)O)NC(=O)[C@H]([C@@H](C)O)NC(=O)[C@H]([C@@H](C)CC)NC(=O)[C@H](Cc5ccccc5)NC(=O)CNC(=O)[C@H](CC(=O)O)NC(=O)[C@H](CO)NC4=O)NC(=O)[C@H](CC(=O)O)NC(=O)[C@H](CCC(=O)O)NC3=O)[C@@H](C)CC)[C@@H](C)O)[C@@H](C)O)NC(=O)[C@H](CO)NC(=O)[C@H](C(C)C)NC(=O)CNC(=O)[C@H](CCCCN)NC(=O)[C@H](CCCN=C(N)N)NC(=O)[C@H](CC(N)=O)NC(=O)[C@H](CC(C)C)NC(=O)[C@H](Cc3ccc(O)cc3)NC(=O)CNC(=O)[C@H](Cc3ccc(O)cc3)NC(=O)CNC(=O)[C@H](CSSC[C@H](NC(=O)[C@@H](NC(=O)[C@@H]3CCCN3C(=O)[C@H](C)NC(=O)[C@H](Cc3ccc(O)cc3)NC(=O)[C@H](C)NC(=O)[C@H](Cc3ccccc3)NC(=O)[C@@H](NC(=O)[C@@H](N)CCSC)C(C)C)[C@@H](C)O)C(=O)N[C@@H](C)C(=O)N[C@@H](CCCN=C(N)N)C(=O)N2)NC(=O)[C@H](Cc2ccc(O)cc2)NC(=O)[C@H](CCCN=C(N)N)NC(=O)[C@H](C)NC(=O)CNC1=O` [MVFAYAPTCARCKSIGARYCGYGYLNRKGVSCDGQTTINSCEDCKRKFGRCSDGFITECFF], the results for the MIC in the experiment with Micrococcus luteus and in the experiment with Escherichia coli SBS 363 were at least 100 µM and at least 35.4 µM, respectively.

`CC[C@H](C)[C@H](NC(=O)[C@H](CCCN=C(N)N)NC(=O)[C@@H](N)CCCN=C(N)N)C(=O)N[C@@H](CCCCN)C(=O)N1CCC[C@H]1C(=O)N[C@@H](CCCN=C(N)N)C(=O)N1CCC[C@H]1C(=O)N1CCC[C@H]1C(=O)N[C@@H](CCCN=C(N)N)C(=O)N[C@@H](CC(C)C)C(=O)N1CCC[C@H]1C(=O)N[C@@H](CCCN=C(N)N)C(=O)N1CCC[C@H]1C(=O)N[C@@H](CCCN=C(N)N)C(=O)N1CCC[C@H]1C(=O)N[C@@H](CCCN=C(N)N)C(=O)O` [RRIKPRPPRLPRPRPR] yielded an MIC with Escherichia coli JW0013 of 0.24 µM (≈ 0.492 µg/mL).

The compound `CC[C@H](C)[C@H](NC(=O)[C@H](CCCN=C(N)N)NC(=O)[C@@H](N)CCCN=C(N)N)C(=O)N[C@@H](CCCN=C(N)N)C(=O)N1CCC[C@H]1C(=O)N[C@@H](CCCN=C(N)N)C(=O)N[C@@H](CCCN=C(N)N)C(=O)N1CCC[C@H]1C(=O)N[C@@H](CCCN=C(N)N)C(=O)N[C@@H](CC(C)C)C(=O)N1CCC[C@H]1C(=O)N[C@@H](CCCN=C(N)N)C(=O)N1CCC[C@H]1C(=O)N[C@@H](CCCN=C(N)N)C(=O)N1CCC[C@H]1C(=O)N[C@@H](CCCN=C(N)N)C(=O)O` [RRIRPRRPRLPRPRPR] gave an MIC against Escherichia coli JW0013 of 0.3 µM (≈ 0.641 µg/mL).

Turning to `CC[C@H](C)[C@H](NC(=O)[C@H](C)NC(=O)[C@H](CCC(N)=O)NC(=O)[C@H](Cc1cnc[nH]1)NC(=O)CNC(=O)[C@H](CCSC)NC(=O)[C@@H]1CCCN1C(=O)[C@H](CCCN=C(N)N)NC(=O)CNC(=O)[C@@H]1CSSC[C@@H]2NC(=O)[C@H](CC(N)=O)NC(=O)[C@H](Cc3cnc[nH]3)NC(=O)[C@H](CCCCN)NC(=O)[C@H](CC(=O)O)NC(=O)[C@H](CC(N)=O)NC(=O)[C@H]([C@@H](C)O)NC(=O)[C@@H]3CSSC[C@H](NC(=O)[C@H](CCCCN)NC(=O)[C@H](CC(C)C)NC(=O)[C@H](CCCCN)NC(=O)[C@H](Cc4ccccc4)NC(=O)[C@H](CC(C)C)NC(=O)CNC(=O)[C@H](CCCCN)NC(=O)[C@H](CCCN=C(N)N)NC(=O)[C@H](CSSC[C@H](NC(=O)[C@@H](N)CO)C(=O)N[C@@H]([C@@H](C)CC)C(=O)N4CCC[C@H]4C(=O)N[C@@H](CCCCN)C(=O)N[C@@H](Cc4cnc[nH]4)C(=O)N[C@@H](CCC(=O)O)C(=O)N[C@@H](CCC(=O)O)C(=O)N3)NC2=O)C(=O)N[C@@H](CCC(N)=O)C(=O)N[C@H]2CSSC[C@H](NC(=O)[C@H](CCCN=C(N)N)NC(=O)[C@H](CCC(=O)O)NC(=O)[C@H]([C@@H](C)O)NC(=O)[C@@H]3CCCN3C(=O)[C@H](CCC(N)=O)NC(=O)CNC(=O)[C@H](CO)NC(=O)[C@H](CCC(=O)O)NC(=O)[C@H](CC(=O)O)NC(=O)[C@H](CC(=O)O)NC(=O)[C@H](Cc3ccccc3)NC(=O)[C@H]([C@@H](C)O)NC(=O)[C@H](CO)NC2=O)C(=O)N[C@@H](C)C(=O)N1)C(=O)N[C@@H](CCC(=O)O)C(=O)N[C@H](C(=O)NCC(=O)N[C@@H](CC(C)C)C(=O)N[C@@H](CC(N)=O)C(=O)N[C@H](C(=O)N[C@@H](Cc1ccccc1)C(=O)N[C@@H](CCCN=C(N)N)C(=O)NCC(=O)N[C@@H](CC(C)C)C(=O)N[C@@H](Cc1ccccc1)C(=O)N[C@@H](CCCCN)C(=O)NCC(=O)N[C@@H](CCCCN)C(=O)N[C@@H](CCCCN)C(=O)N[C@@H](CCCCN)C(=O)N[C@@H](CC(N)=O)C(=O)N[C@@H](CCCCN)C(=O)N[C@@H](CCCCN)C(=O)N[C@H](C(=O)N[C@@H](CCCCN)C(N)=O)[C@@H](C)O)[C@@H](C)CC)[C@@H](C)O` [SCIPKHEECTNDKHNCCRKGLFKLKCQCSTFDDESGQPTERCACGRPMGHQAIETGLNIFRGLFKGKKKNKKTK], the MIC in experiment [9] was above 250 µM; against Escherichia coli SBS 363, 22.1 µM (≈ 185 µg/mL).

In the experiment on Escherichia coli JW0013, `CC[C@H](C)[C@H](NC(=O)[C@H](CCCN=C(N)N)NC(=O)[C@H](CCCN=C(N)N)NC(=O)[C@@H]1CCCN1C(=O)[C@@H]1CCCN1C(=O)[C@H](CCCN=C(N)N)NC(=O)[C@H](Cc1c[nH]c2ccccc12)NC(=O)[C@H](CCCN=C(N)N)NC(=O)[C@@H]1CCCN1C(=O)[C@H](CC(C)C)NC(=O)[C@H](Cc1ccc(O)cc1)NC(=O)[C@@H]1CCCN1C(=O)[C@@H]1CCCN1C(=O)[C@H](CCCCN)NC(=O)[C@H](CC(=O)O)NC(=O)[C@@H](N)C(C)C)C(=O)N[C@@H](Cc1ccc(O)cc1)C(=O)N[C@@H](CC(N)=O)C(=O)N[C@@H](CCCN=C(N)N)C(N)=O` [VDKPPYLPRWRPPRRIYNR] had an MIC of 1.94 µM (≈ 4.8 µg/mL).

Regarding `CC[C@H](C)[C@H](NC(=O)[C@H](CCCN=C(N)N)NC(=O)[C@H](CCCN=C(N)N)NC(=O)[C@@H]1CCCN1C(=O)[C@@H]1CCCN1C(=O)[C@H](CCCN=C(N)N)NC(=O)[C@@H]1CCCN1C(=O)[C@@H](NC(=O)[C@@H]1CCCN1C(=O)[C@H](CC(C)C)NC(=O)[C@H](Cc1ccc(O)cc1)NC(=O)[C@@H]1CCCN1C(=O)[C@@H]1CCCN1C(=O)[C@H](CCCCN)NC(=O)[C@H](CC(=O)O)NC(=O)[C@@H](N)C(C)C)[C@@H](C)O)C(=O)N[C@@H](Cc1ccc(O)cc1)C(=O)N[C@@H](CC(N)=O)C(=O)N[C@@H](CCCN=C(N)N)C(N)=O` [VDKPPYLPTPRPPRRIYNR], the MIC in the experiment on Escherichia coli JW0013 came to 2.06 µM (≈ 4.8 µg/mL).

`CC[C@H](C)[C@H](NC(=O)[C@H](CCCN=C(N)N)NC(=O)[C@H](CCCN=C(N)N)NC(=O)[C@@H]1CCCN1C(=O)[C@@H]1CCCN1C(=O)[C@H](CCCN=C(N)N)NC(=O)[C@H](CCCN=C(N)N)NC(=O)[C@H](CCCN=C(N)N)NC(=O)[C@@H]1CCCN1C(=O)[C@H](CCCN=C(N)N)NC(=O)[C@H](Cc1ccc(O)cc1)NC(=O)[C@@H]1CCCN1C(=O)[C@H](CCCN=C(N)N)NC(=O)[C@H](CCCCN)NC(=O)[C@H](CC(=O)O)NC(=O)[C@@H](N)C(C)C)C(=O)N[C@@H](Cc1ccc(O)cc1)C(=O)N[C@@H](CC(N)=O)C(=O)N[C@@H](CCCN=C(N)N)C(N)=O` [VDKRPYRPRRRPPRRIYNR]: the minimal inhibitory concentration (MIC) in the experiment on Escherichia coli JW0013 was 0.941 µM (≈ 2.4 µg/mL).
